Series [1] concerns senescence-accelerated model mice (SAMP8). Put plainly: Life extending effect for a senescence-accelerated model mouse (survival rate). In kind it is in vivo. The settings on record: for Survival Rate (%): SAMP8 male mice, feedstuff containing 0.4% (about 300 to 500 mg/kg/day), 13th month after start of test, Kaplan-Meier, n=8 to 10; for Extension of a life span (in words): SAMP8 mice, ingestion with feedstuff containing 0.4%. From the text: In order to evaluate these life extension effects, a special senescence-accelerated model mouse (for example, SAMP8), which has a shorter lifetime than a common mouse, may be used as a model for evaluations in vivo, for example. […] This mouse is very useful model for evaluating effects over a life span. The aging states shown in this mouse extremely resembles the aging states of humans, and is also useful to evaluate the health condition of humans in a senectitude.
(§1) Three groups were set as follows. One is a group, to which feedstuff (CE-2, a product of CLEA Japan, Inc.) containing 0.4% of reduced coenzyme Q10 produced in Production Example 1 (containing about 1% by weight of oxidized coenzyme Q10) was given. Another group is a group, to which feedstuff (CE-2, a product of CLEA Japan, Inc.) containing 0.4% of commercially-available oxidized coenzyme Q10 (100% oxidized coenzyme Q10, a product of Kaneka Corporation) was given. The rest is a control group, to which only basic feedstuff (CE-2, a product of CLEA Japan, Inc.) was given. Each group consisted of 8 to 10 senescence-accelerated model mice (SAMP8, 3-week old, male). Each group was allowed free access to the feedstuff. During the test period, measurements of motor activities and recording of the number of dead mice were periodically performed. The dose of reduced and oxidized coenzyme Q10 as estimated from the feed consumption and animal body weight corresponded to about 300 to 500 mg/kg/day.
(§2) Results are illustrated in Tables 1 and 2. Table 1 illustrates the survival rates in the control group, the reduced coenzyme Q10-ingested group, and the oxidized coenzyme Q10-ingested group at the 13th month after the start of the test. Each data consists of n=8 to 10. The survival rate was assayed by the Kaplan-Meier method. The symbol “*” expresses that there is a significant difference relative to the control group at the degree of risk of 5%. Table 2 illustrates averages of motor activities (measuring apparatus: SUPERMEX, a product of Muromachi machinery) over a period from 16 o'clock to 9 o'clock in the morning of next day, and the relative proportions to the control group, estimated by assuming the level of the control group as 100. The data illustrated in Table 2 are values for each of the control group, the reduced coenzyme Q10-ingested group, and the oxidized coenzyme Q10-ingested group at the 11th month after the start of the test. Each data consist of n=4 to 7, and significant difference was tested by t-test.

Series [2] shares this test system. The experiment in a line: Motor activities of senescence-accelerated model mice (SUPERMEX). The format is in vivo, mouse. The settings on record: for Motor activities (Count) / Motor activities, relative proportion to the control group (control = 100): feedstuff containing 0.4%, 11th month after start of test; for Motor activities (Count): average from 16 o'clock to 9 o'clock next morning, n=4 to 7; for Motor activities, relative proportion to the control group (control = 100): control group level taken as 100; for Inhibition of deterioration of the motor activity (in words): ingestion with feedstuff containing 0.4%.
Description: as §1, §2

In series [3] the test system is rats. The settings on record: every day over 52 weeks at 1,200 mg/kg/day; cited from earlier work.
Series [4] deals with rats. Conditions: rats bred with unsaturated fatty acid-enriched feed; cited from earlier work.
Series [5] deals with mice. Conditions: cited from earlier work.

Take `COC1=C(OC)C(=O)C(C/C=C(\C)CC/C=C(\C)CC/C=C(\C)CC/C=C(\C)CC/C=C(\C)CC/C=C(\C)CC/C=C(\C)CC/C=C(\C)CC/C=C(\C)CCC=C(C)C)=C(C)C1=O` [Oxidized coenzyme Q10, oxidized coenzyme Q10]: in series [1], the “Survival Rate (%)” value is 40% and the “Extension of a life span (in words)” value was “slightly improved”. For the same molecule, in series [2], the “Motor activities (Count)” value is reported as 12754 Count; the “Motor activities, relative proportion to the control group (control = 100)” value is listed as “(119)”; the “Inhibition of deterioration of the motor activity (in words)” value was “slightly improved”.

`COc1c(O)c(C)c(C/C=C(\C)CC/C=C(\C)CC/C=C(\C)CC/C=C(\C)CC/C=C(\C)CC/C=C(\C)CC/C=C(\C)CC/C=C(\C)CC/C=C(\C)CCC=C(C)C)c(O)c1OC` [Reduced coenzyme Q10, reduced coenzyme Q10]: in series [1], the “Survival Rate (%)” value was 75% and the “Extension of a life span (in words)” value was “remarkable extension of a life span”. Further, in series [2], the “Motor activities (Count)” value was determined as 17520 Count; the “Motor activities, relative proportion to the control group (control = 100)” value is given as “(163)”; the “Inhibition of deterioration of the motor activity (in words)” value is listed as “inhibition of deterioration of the motor activity”.

Turning to `COC1=C(OC)C(=O)C(C/C=C(\C)CC/C=C(\C)CC/C=C(\C)CC/C=C(\C)CC/C=C(\C)CC/C=C(\C)CC/C=C(\C)CC/C=C(\C)CC/C=C(\C)CCC=C(C)C)=C(C)C1=O` [coenzyme Q10], the “Toxic effect in chronic toxicity test” value in series [3] was “no toxic effect was observed”.

As for ubiquinone, the “Effect on life span of rats” value in series [4] is “extended the life span of the rat”. In addition, the “Effect on life span of mice” value in series [5] is “did not affect the life span of mice”.

The record behind these values is patent US20090148426A1, “COMPOSITION FOR LIFE EXTENSION AND METHOD OF EXTENDING THE LIFE” (priority 2005, published 2009).
